PubChem BioAssay AID1919015 (Molecular Pharmacology Branch, DTP, NCI, 2023)
pIC50: −log10 of the molar value. Several values for one entry are separate records, joined by “and”; a condition that tells them apart may be missing. Identical values can stand only once.

Test system: OVCAR-5 complex spheroids with HUVEC/MSC, viability, % test/control
Assay: Anticancer human tumor OVCAR-5 cell line growth inhibition [AhR];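 further: spheroids exposed to compounds for 7 days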;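 on viability, T/C: 100% = DMSO vehicle control wells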
Conditions: for viability, T/C: stronger effect = lower value
Method in brief: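 Agents were dosed in half-log steps down from roughly clinical Cmax, or from 10 microM where Cmax was unknown, alone and with AhR antagonists. Read-out: percent test/control growth of tumor spheroids containing HUVEC and MSC stromal cells.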

[1] = curve of first compound, second compound 0.1 µM
[2] = curve of first compound, second compound 0.316 µM
[3] = curve of first compound, second compound 1 µM
[4] = curve of first compound, second compound 3.16 µM
[5] = curve of first compound, second compound 10 µM
[6] = second compound 0.1 µM, first compound 0.0316 µM
[7] = second compound 0.1 µM, first compound 0.1 µM
[8] = second compound 0.1 µM, first compound 0.316 µM
[9] = second compound 0.1 µM, first compound 1 µM
[10] = second compound 0.1 µM, first compound 3.16 µM
[11] = second compound 0.1 µM, first compound 10 µM
[12] = second compound 0.316 µM, first compound 0.0316 µM
[13] = second compound 0.316 µM, first compound 0.1 µM
[14] = second compound 0.316 µM, first compound 0.316 µM
[15] = second compound 0.316 µM, first compound 1 µM
[16] = second compound 0.316 µM, first compound 3.16 µM
[17] = second compound 0.316 µM, first compound 10 µM
[18] = second compound 1 µM, first compound 0.0316 µM
[19] = second compound 1 µM, first compound 0.1 µM
[20] = second compound 1 µM, first compound 0.316 µM
[21] = second compound 1 µM, first compound 1 µM
[22] = second compound 1 µM, first compound 3.16 µM
[23] = second compound 1 µM, first compound 10 µM
[24] = second compound 3.16 µM, first compound 0.0316 µM
[25] = second compound 3.16 µM, first compound 0.1 µM
[26] = second compound 3.16 µM, first compound 0.316 µM
[27] = second compound 3.16 µM, first compound 1 µM
[28] = second compound 3.16 µM, first compound 3.16 µM
[29] = second compound 3.16 µM, first compound 10 µM
[30] = second compound 10 µM, first compound 0.0316 µM
[31] = second compound 10 µM, first compound 0.1 µM
[32] = second compound 10 µM, first compound 0.316 µM
[33] = second compound 10 µM, first compound 1 µM
[34] = second compound 10 µM, first compound 3.16 µM
[35] = second compound 10 µM, first compound 10 µM

| SMILES | pIC50 [1] | pIC50 [2] | pIC50 [3] | pIC50 [4] | pIC50 [5] | viability, T/C [6] | viability, T/C [7] | viability, T/C [8] | viability, T/C [9] | viability, T/C [10] | viability, T/C [11] | viability, T/C [12] | viability, T/C [13] | viability, T/C [14] | viability, T/C [15] | viability, T/C [16] | viability, T/C [17] | viability, T/C [18] | viability, T/C [19] | viability, T/C [20] | also measured |
| --- | --- | --- | --- | --- | --- | --- | --- | --- | --- | --- | --- | --- | --- | --- | --- | --- | --- | --- | --- | --- | --- |
| O=C(C=Cc1cccc(S(=O)(=O)Nc2ccccc2)c1)NO + CC(CO)NC(=O)c1cc(-c2ccc(Cl)cc2)nn(-c2cnn(C)c2)c1=O | 5.98 | 6.06 | 6.00 | 6.09 | 6.03 | 99.8% | 95.7% | 76% | 52.2% | 23.3% | 6.15% | 101% | 95% | 76.4% | 45.9% | 21% | 6.73% | 108% | 101% | 79.1% | viability, T/C [21]: 50%; viability, T/C [22]: 22.3%; viability, T/C [23]: 5.69%; viability, T/C [24]: 103%; viability, T/C [25]: 91.9%; viability, T/C [26]: 72.4%; viability, T/C [27]: 45.7%; viability, T/C [28]: 19.9%; viability, T/C [29]: 5.14%; viability, T/C [30]: 89.4%; viability, T/C [31]: 84.2%; viability, T/C [32]: 72.4%; viability, T/C [33]: 49.3%; viability, T/C [34]: 19.8%; viability, T/C [35]: 4.82% |
| CC1(C)CCC(CN2CCN(c3ccc(C(=O)NS(=O)(=O)c4ccc(NCC5CCOCC5)c([N+](=O)[O-])c4)c(Oc4cnc5[nH]ccc5c4)c3)CC2)=C(c2ccc(Cl)cc2)C1 + CC(CO)NC(=O)c1cc(-c2ccc(Cl)cc2)nn(-c2cnn(C)c2)c1=O | < 5.00 | < 5.00 | < 5.00 | < 5.00 | < 5.00 | 107% | 107% | 109% | 113% | 118% | 51.4% | 111% | 107% | 113% | 114% | 118% | 50.6% | 115% | 116% | 122% | viability, T/C [21]: 120%; viability, T/C [22]: 122%; viability, T/C [23]: 53.8%; viability, T/C [24]: 102%; viability, T/C [25]: 106%; viability, T/C [26]: 104%; viability, T/C [27]: 111%; viability, T/C [28]: 114%; viability, T/C [29]: 53.8%; viability, T/C [30]: 100%; viability, T/C [31]: 102%; viability, T/C [32]: 104%; viability, T/C [33]: 104%; viability, T/C [34]: 106%; viability, T/C [35]: 57.6% |
| COc1cccc2c1C(=O)c1c(O)c3c(c(O)c1C2=O)CC(O)(C(=O)CO)CC3OC1CC(N)C(O)C(C)O1 (configuration not stated) | – | – | – | – | – | – | – | – | – | – | – | – | – | – | – | – | – | – | – | – | viability, T/C (compound 0.0316 µM): 66.2% and 56.6% and 74%; viability, T/C (compound 0.1 µM): 55.2% and 47.4% and 58.4%; viability, T/C (compound 0.316 µM): 49.6% and 41.8% and 46.6%; viability, T/C (compound 1 µM): 28.7% and 24.1% and 25.6%; viability, T/C (compound 3.16 µM): 1.66% and 1.72% and 3.06%; viability, T/C (compound 10 µM): 1.46% and 1.1% and 1.11%; pIC50 (curve of compound): 6.50 and 6.94 and 6.65 |
| COc1cc(C2c3cc4c(cc3C(OC3OC5COC(C)OC5C(O)C3O)C3COC(=O)C23)OCO4)cc(OC)c1O (configuration not stated) + Cc1cncc(-c2nc(NCCc3c[nH]c4ccccc34)c3ncn(C(C)C)c3n2)c1 | 5.57 | 5.53 | 5.63 | 6.04 | > 7.50 | 97.2% | 97.1% | 90.8% | 68.8% | 47.8% | 36.1% | 97.1% | 93.3% | 86% | 67.7% | 49% | 37.6% | 90% | 91.6% | 79.7% | viability, T/C [21]: 62.9%; viability, T/C [22]: 46.1%; viability, T/C [23]: 37.4%; viability, T/C [24]: 79.8%; viability, T/C [25]: 80.1%; viability, T/C [26]: 67.9%; viability, T/C [27]: 48.1%; viability, T/C [28]: 37.6%; viability, T/C [29]: 33%; viability, T/C [30]: 9.11%; viability, T/C [31]: 9.43%; viability, T/C [32]: 7.81%; viability, T/C [33]: 4.62%; viability, T/C [34]: 3.56%; viability, T/C [35]: 7.82% |
